{
  "source": "patent US11167133B2",
  "about": "“Intratumoral modulation therapy” (LONDON HEALTH SCIENCES CENTRE RESEARCH INC., priority 2015, dated 2021)",
  "key": {"[1]": {"tested_on": "primary patient GBM cells", "test": "Annexin V / propidium iodide flow cytometry of apoptotic and dead cells", "assay_type": "cell-based, human", "conditions": "72 h; for combined fraction of apoptotic (annexin+) and dead (annexin+ and PI+) GBM cells: mean±SD, cells from 3 patients", "text": "(§1) This study was approved by the Research Ethics Board at the University of Western Ontario (Approval #17290). GBM specimens were obtained at the time of operative resection and placed immediately into phosphate-buffered saline (PBS) with 0.5% fetal bovine serum (FBS; Life Technologies, Burlington, ON, Canada). The tissue was washed, digested and filtered through a 100-μm cell strainer. Samples were then centrifuged and resuspended in Dulbecco's modified Eagle's medium (DMEM; Wisent Bioproducts, St. Bruno, PQ, Canada) supplemented with 10% FBS, 1% non-essential amino acids and 1% penicillin/streptomycin (Life Technologies) before plating to a 35-mm dish for 30 min to allow blood cells to separate. The upper cell suspension was then transferred to two wells of a 24-well plate, freshly pre-coated with 10 μg/ml poly-L-lysine (Trevigen Inc., Gaithersburg, Md., USA) and incubated at 37° C. with 5% CO2. Cultures were passaged at approximately 80% confluence and split 1:2 using 0.25% trypsin with 0.53 mM ethylenediaminetetraacetic acid (EDTA; Wisent). The medium was changed twice per week. All assays were conducted using GBM cells from cultures at passages 4 through 12.\nGBM cells (2×10^5 cells in 2 ml maintenance DMEM) were transferred to the 35 mm wells in standard 6-well plates and allowed to grow to ˜70% confluence before treatment. A clinical grade, platinum-based reference strip electrode (AD-Tech, Racine, Wis., USA) around the periphery and a stimulating electrode (Medtronic Ltd., Brampton, ON, Canada) in the centre of the well. The electrodes were connected to a waveform generator set to produce monophasic, square-wave pulses of 4 volts, with pulse width of 90 μsec and frequency of 130 Hz. This setting is in the range of that commonly used in clinical neuromodulation treatment for symptoms of movement disorders, such as Parkinson's disease (11). Control wells (i.e. sham-treated) were fitted with electrodes but no current was delivered. Treatment durations between 24-96 h were used to allow adequate time for antitumor effect while avoiding the need for medium change once IMT was initiated. Thus, all intact GBM cells, adherent and floating, contributed to the viability measures described below. GBM cells treated with chemotherapy were plated with DMEM containing temozolomide (50 μM; Sigma Aldrich) in 35 mm wells fitted with the IMT apparatus and received 72 h of concomitant IMT or sham conditions. The 50 μM temozolomide concentration reflects clinically relevant levels corresponding to the in vivo plasma concentration of 150 mg/m2 in the adjuvant phase of GBM treatment (24).\nAn Annexin V Apoptosis Detection Kit with propidium iodide (PI; BioLegend, San Diego, Calif., USA) was used for identification of apoptotic and dead cells, as per the manufacturer's instructions. Cell fractions were analyzed using a Becton Dickinson LSR II SORP flow cytometer running FACSDiva software (BD Biosciences, Mississauga, ON, Canada). Cells were first gated on forward scatter (FSC-) versus side scatter (SSC-) characteristics before excluding doublets using consecutive gating FSC-Area versus FSC-Width and SSC-Area versus SSC-Width plots. The populations of annexin V+/PI−, annexin V+/PI+, annexin V−/PI+ and annexin V−/PI− were then calculated with quadrant gates. Approximately 30,000 single cells were acquired per sample at a maximum event rate of 5,000 events per second. Data were analyzed using FlowJo v 9.6.3 (TreeStar, Inc., Ashland, Oreg., USA)."}, "[2]": {"tested_on": "primary patient GBM cells", "test": "MTT cell viability assay", "assay_type": "cell-based, human", "conditions": "72 h, mean±SD, 3 patients", "text": "as §1, with “Cultures were passaged at approximately 80% confluence and split 1:2 using 0.25% trypsin with 0.53 mM ethylenediaminetetraacetic acid (EDTA; Wisent). The medium was changed twice per week. All assays were conducted using GBM cells from cultures at passages 4 through 12.” left out\nPrimary human patient GBM cells (1×10^5 cells in 2 ml maintenance DMEM) were seeded into one 35 mm well equipped with the IMT system and allowed to grow to ˜70% confluence. […] In the IMT-siRNA conditions, IMT was initiated at the time of transfection and maintained for the entire 48 h, after which the extent of target knockdown and GBM cell viability were assessed.\nCell viability was evaluated using the 3-(4,5-dimethylthiazol-2-yl)-2,5-diphenyltetrazolium (MTT) spectral analysis (Sigma Aldrich). […]"}, "[3]": {"conditions": "temozolomide 50 μM combined with IMT (4 V, 130 Hz)"}, "[4]": {"conditions": "temozolomide 50 μM, with concomitant IMT (4 V, 130 Hz), representative scatterplot"}, "[5]": {"conditions": "temozolomide 50 μM, without IMT, representative scatterplot"}},
  "data": [
    {"smiles": "Cn1nnc2c(C(N)=O)ncn2c1=O", "note": "[temozolomide]", "values": [
      {"measurement": "combined fraction of apoptotic (annexin+) and dead (annexin+ and PI+) GBM cells", "setting": "[1]; single-modality temozolomide 50 μM", "value": "16.9±7.4", "unit": "%"},
      {"measurement": "combined fraction of apoptotic (annexin+) and dead (annexin+ and PI+) GBM cells", "setting": "[1]; [3]", "value": "52.4±21.8", "unit": "%"},
      {"measurement": "dead cells (annexin and PI-positive), FIG. 4 scatterplot", "setting": "[1]; [4]", "value": 16, "unit": "%"},
      {"measurement": "live cells, FIG. 4 scatterplot", "setting": "[1]; [4]", "value": 25.2, "unit": "%"},
      {"measurement": "apoptotic cells (annexin-positive), FIG. 4 scatterplot", "setting": "[1]; [5]", "value": 14.1, "unit": "%"},
      {"measurement": "dead cells (annexin and PI-positive), FIG. 4 scatterplot", "setting": "[1]; [5]", "value": 9.4, "unit": "%"},
      {"measurement": "live cells, FIG. 4 scatterplot", "setting": "[1]; [5]", "value": 76.1, "unit": "%"},
      {"measurement": "viability at 50 µM", "setting": "[2]; Homo sapiens, temozolomide 50 μM alone, read-out: viability relative to untreated cells (MTT)", "value": "69.7 ± 11.8", "unit": "%"},
      {"measurement": "viability relative to untreated cells (MTT)", "setting": "[2]; [3]", "value": "29.1±3.2", "unit": "%"}
    ]}
  ]
}
